Measured values reported in patent US5801176A, “Substituted benzothienylpiperazines and their use” (Hoechst Marion Roussel, Inc., priority 1997, dated 1998).
Structures can show the parent of a compound that is named as a salt.

Tested on: apomorphine climbing
Experiment: climbing mice assay (apomorphine-induced climbing, antipsychotic activity)
Assay type: in vivo
Conditions: Mus musculus, 0.5 h, ip @ 30 (min before apomorphine 1.5 mg/kg sc); for change in vivo at 20 mg/kg: read-out: CLIMBING MOUSE % (percent response, climbing score vs. control set to 100%); for ED50: parentheses = 95% confidence limits
Method: The compounds of the present invention are useful for treating psychoses by virtue of their ability to elicit an antipsychotic response in mammals. Antipsychotic activity is determined in the climbing mice assay by a method similar to those described by P. Protais, et al., Psychopharmacol.,50:1 (1976) and B. Costall, Eur. J. Pharmacol., 50:39 (1978).
Subject […] male mice (23-27 grams) are group-housed under standard laboratory conditions. The mice are individually placed in wire mesh stick cages (4"×10") and are allowed one hour for adaption and exploration of the new environment. Then apomorphine is injected subcutaneously at 1.5 mg/kg, a dose causing climbing in all subjects for 30 minutes. Compounds to be tested for antipsychotic activity are injected intraperitioneally or given by oral doses at various time intervals., e.g. 30 minutes, 60 minutes, etc., prior to the apomorphine challenge at a screening dose of 10-60 mg/kg.
For evaluation of climbing, 3 readings are taken at 10, 20 and 30 minutes after apomorphine administration according to the following scale:
4 paws on bottom (no climbing)
2 paws on the wall (rearing)
4 paws on the wall (full climb)
Mice consistently climbing before the injection of apomorphine are discarded.
With full-developed apomorphine climbing, the animals are hanging on to the cage walls, rather motionless, over long periods of time. By contrast, climbs due to mere motor stimulation usually only last a few seconds.
The climbing scores are individually totaled (maximal score: 6 per mouse over 3 readings) and the total score of the control group (vehicle intraperitoneally-apomorphine subcutaneously) is set to 100%. The percent response at a dose of 20 mg/kg. or the ED50 values with 95% confidence limits, calculated by a linear regression analysis, of some of the compounds of the present invention as well as a standard antipsychotic agent are presented in Table 1.

Fc1ccc2c(N3CCN(CCCCN4Cc5ccccc5C4)CC3)csc2c1
change in vivo at 20 mg/kg: -33%

O=C1c2ccccc2C(O)N1CCN1CCN(c2csc3cc(F)ccc23)CC1 (stereo not shown) [2-[2-[4-(6-Fluorobenzo[b]thien-3-yl)-1-piperazinyl]-ethyl-2,3-dihydro-3-hydroxy-1H-isoindol-1-one]
change in vivo at 20 mg/kg: -43%

O=C1c2ccccc2C(=O)N1CCCCN1CCN(c2csc3cc(F)ccc23)CC1 [2-[4-[4-(6-Fluorobenzo[b]thien-3-yl)-1-piperazinyl]butyl]-1H-isoindole-1,3(2H)-dione]
change in vivo at 20 mg/kg: -100%

NCCCCN1CCN(c2csc3cc(F)ccc23)CC1 [4-(6-Fluorobenzo[b]thien-3-yl)-1-piperazinebutanamine (Z)-2-butenedioate (1:2)]
change in vivo at 20 mg/kg: -34%

CC(=O)N(CCCCN1CCN(c2csc3cc(F)ccc23)CC1)C(=O)C(C)C [N-Acetyl-N-[4-[4-(6-fluorobenzo[b]thien-3-yl)-1-piperazinyl]butyl]-2-methyl-propanamide]
change in vivo at 20 mg/kg: -75%

O=C1c2ccccc2C(=O)N1CCN1CCN(c2csc3cc(F)ccc23)CC1 [N-[2-[4-(6-Fluorobenzo[b]thien-3-yl)-1-piperazinyl]-ethyl]-phthalimide]
change in vivo at 20 mg/kg: -25%

CC(=O)NCCCCN1CCN(c2csc3cc(F)ccc23)CC1 [N-[4-[4-(6-Fluorobenzo[b]thien-3-yl)-1-piperazinyl]butyl-acetamide]
ED50: 1.35 mg/kg

O=C(NCCCCN1CCN(c2csc3cc(F)ccc23)CC1)c1cccs1 [N-[4-[4-(6-Fluorobenzo[b]thien-3-yl)-1-piperazinyl]butyl]-2-thiophenecarboxamide (Z)-2-butenedioate (1:1)]
change in vivo at 20 mg/kg: -100%

O=C(NCCCCN1CCN(c2csc3cc(F)ccc23)CC1)C12CC3CC(CC(C3)C1)C2 [N-[4-[4-(6-Fluorobenzo[b]thien-3-yl)-1-piperazinyl]butyl]-adamantane-1-carboxamide maleate]
change in vivo at 20 mg/kg: -79%

CC(C)C(=O)NCCCCN1CCN(c2csc3cc(F)ccc23)CC1 [N-[4-[4-(6-fluorobenzo[b]thien-3-yl)-1-piperazinyl]butyl]-2-methyl-propanamide]
ED50: 1.3 mg/kg
